The experiment addresses Ras-related C3 botulinum toxin substrate 1 (Mus musculus, UniProt P63001). As to the kind of experiment: Rac1 wildtype GTP binding inhibitors, SAR follow-up, biochemical, pyrazoline analogs, multiplex, flow cytometry, Ki (AID 2055). To be noted: inactive by the depositor's call. A general note: A flow cytometer gives signals particle by particle.

The source of these data is BindingDB's records for doi:10.7270/Q2959G0B (Nmmlsc, 2009).

`COc1ccc(C2CC(c3cccnc3)=NN2c2ccc(S(N)(=O)=O)cc2)cc1` (stereo not given) came in with a concentration giving a half-maximal response (EC50) of 30 µM.

Regarding `COc1ccc(C2=NN(c3ccccc3)C(c3ccccc3C(F)(F)F)C2)cc1` (stereo not given), the response was half-maximal at 30 µM (EC50).

Take `COc1ccc(C2CC(c3cccc(Br)c3)=NN2c2ccc(S(N)(=O)=O)cc2)cc1` (stereo not given) [UNM-0000306113]: a half-maximal effect (EC50) was put at 30 µM.

In turn, `COc1ccc(C2CC(c3cccc(C(F)(F)F)c3)=NN2c2ccc(S(N)(=O)=O)cc2)cc1` (stereo not given) had an EC50 of 30 µM.

On to `COc1ccc(C2CC(c3ccccc3OC)=NN2c2ccc(S(N)(=O)=O)cc2)cc1` (stereo not given), for which the midpoint of the response, the EC50, lay at 30 µM.

Take `COc1ccc(C2CC(c3ccccc3Cl)=NN2c2ccc(S(N)(=O)=O)cc2)cc1` (stereo not given) [4-[5-(2-chlorophenyl)-3-(4-methoxyphenyl)-3,4-dihydropyrazol-2-yl]benzenesulfonamide]: it took 30 µM to reach a half-maximal effect (EC50).

Consider `COc1ccc(C2CC(c3ccc(C(F)(F)F)cc3)=NN2c2ccc(S(N)(=O)=O)cc2)cc1` (stereo not given) [4-[3-(4-methoxyphenyl)-5-[4-(trifluoromethyl)phenyl]-3,4-dihydropyrazol-2-yl]benzenesulfonamide], for which a half-maximal effect (EC50) was put at 30 µM.

Take `Cc1ccccc1[N+]1=N[C-](c2ccccc2)CC1c1cccc([N+](=O)[O-])c1` (stereo not given) [UNM-0000305854]: it took 30 µM to reach a half-maximal effect (EC50).

For the molecule `COc1ccc(C2CC(c3ccccc3F)=NN2c2ccc(S(N)(=O)=O)cc2)cc1` (stereo not given) [UNM-0000306110], it took 30 µM to reach a half-maximal effect (EC50).

Turning to `COc1ccc(C2=NN(c3cccc(F)c3)C(c3ccc(Cl)cc3)C2)cc1` (stereo not given) [3-(4-chlorophenyl)-2-(3-fluorophenyl)-5-(4-methoxyphenyl)-3,4-dihydropyrazole], the midpoint of the response, the EC50, lay at 30 µM.

`COc1ccc(C2CC(c3ccc(F)cc3)=NN2c2cccc(F)c2)cc1OC` (stereo not given) showed a 50% effective concentration (EC50) of 0.027 µM.

`Cc1ccccc1N1N=C(c2ccccc2)CC1c1ccc(N(C)C)cc1` (stereo not given) [N,N-dimethyl-4-[2-(2-methylphenyl)-5-phenyl-3,4-dihydropyrazol-3-yl]aniline] returned an EC50 of 30 µM.

`COc1ccc(C2CC(c3ccccc3)=NN2c2cccc(S(N)(=O)=O)c2)cc1` (stereo not given) [3-[3-(4-methoxyphenyl)-5-phenyl-3,4-dihydropyrazol-2-yl]benzenesulfonamide]: the EC50 was determined as 30 µM.

In turn, `O=[N+]([O-])c1cccc(C2C[C-](c3ccccc3)N=[N+]2c2ccccc2)c1` (stereo not given) [UNM-0000305857] yielded a concentration giving a half-maximal response (EC50) of 30 µM.

The molecule `COc1ccc(C2CC(c3ccccc3)=NN2c2ccc(Cl)c(C(=O)O)c2)cc1OC` (stereo not given) [2-chloro-5-[3-(3,4-dimethoxyphenyl)-5-phenyl-3,4-dihydropyrazol-2-yl]benzoic acid] showed a half-maximal effective concentration (EC50) of 30 µM.

The molecule `COc1ccc(C2CC(c3ccccc3Br)=NN2c2ccc(S(N)(=O)=O)cc2)cc1` (stereo not given) [UNM-0000306112] came in with an EC50 of 30 µM.

In turn, `CC(=O)Oc1ccc(C2=NN(c3ccccc3)C(c3ccccc3)C2)cc1` (stereo not given) showed an EC50 of 5.65 µM.

As for `NS(=O)(=O)c1ccc(N2N=C(c3ccc(Br)cc3)CC2c2ccc(F)cc2)cc1` (stereo not given) [4-[5-(4-bromophenyl)-3-(4-fluorophenyl)-3,4-dihydropyrazol-2-yl]benzenesulfonamide], the half-maximal effective concentration (EC50) came to 0.014 µM.

Regarding `COc1ccc(C2CC(C3CCCCC3)=NN2c2ccc(S(N)(=O)=O)cc2)cc1` (stereo not given) [4-[5-cyclohexyl-3-(4-methoxyphenyl)-3,4-dihydropyrazol-2-yl]benzenesulfonamide], the half-maximal effective concentration (EC50) was 30 µM.

For the molecule `COc1ccc(C2CC(c3ccc(Cl)cc3)=NN2c2ccc(S(N)(=O)=O)cc2)cc1` (stereo not given), the EC50 amounted to 30 µM.

As for `COc1ccc(C2CC(c3ccsc3)=NN2c2ccc(S(N)(=O)=O)cc2)cc1` (stereo not given) [4-[3-(4-methoxyphenyl)-5-thiophen-3-yl-3,4-dihydropyrazol-2-yl]benzenesulfonamide], it took 30 µM to reach a half-maximal effect (EC50).

`Cc1ccc(-c2cc(C(F)(F)F)nn2-c2ccc(S(N)(=O)=O)cc2)cc1` [Celecoxib] yielded a concentration giving a half-maximal response (EC50) of 30 µM.

`COc1ccc(C2CC(c3ccncc3)=NN2c2ccc(S(N)(=O)=O)cc2)cc1` (stereo not given) had a 50% effective concentration (EC50) of 30 µM.

Molecule `Fc1ccccc1C1CC(c2ccc(Br)cc2)=NN1c1ccc(Br)cc1` (stereo not given) [2,5-bis(4-bromophenyl)-3-(2-fluorophenyl)-3,4-dihydropyrazole] gave an EC50 of 30 µM.

The molecule `O=[N+]([O-])c1ccc([N+]2=N[C-](c3ccccc3)CC2c2ccccc2)cc1` (stereo not given) returned a half-maximal effective concentration (EC50) of 30 µM.

As for `COc1ccc(C2CC(c3cccs3)=NN2c2ccc(S(N)(=O)=O)cc2)cc1` (stereo not given) [KUC103438N], the concentration giving a half-maximal response (EC50) stood at 30 µM.

Consider `O=C(O)c1ccc(N2N=C(c3ccccc3)CC2c2ccccc2)cc1` (stereo not given), for which the EC50 is 54.7 µM.

`Clc1ccc(N2N=C(c3ccccc3)CC2c2ccccc2)cc1` (stereo not given) yielded a concentration giving a half-maximal response (EC50) of 30 µM.

`NS(=O)(=O)c1ccc(N2N=C(c3ccccc3)CC2c2ccccc2Cl)cc1` (stereo not given) [KUC103446N] had a concentration for a half-maximal effect (EC50) of 30 µM.

For the molecule `COc1ccc(C2CC(c3ccc(Br)cc3)=NN2c2ccccc2Cl)cc1` (stereo not given) [UNM-0000305832], it took 30 µM to reach a half-maximal effect (EC50).

For `CCc1ccc(C2=NN(c3ccc(S(N)(=O)=O)cc3)C(c3ccc(F)cc3)C2)cc1` (stereo not given), the 50% effective concentration (EC50) stood at 30 µM.

`O=[N+]([O-])c1ccc([N+]2=N[C-](c3ccccc3)CC2c2ccc(O)cc2)cc1` (stereo not given) [UNM-0000305838] came in with an EC50 of 30 µM.

For the molecule `CN(C)c1ccc(C2CC(c3ccc(F)cc3)=NN2c2ccccc2)cc1` (stereo not given) [UNM-0000305866], the concentration for a half-maximal effect (EC50) was determined as 30 µM.

Regarding `COc1ccc(C2CC(c3ccccc3C(F)(F)F)=NN2c2ccc(S(N)(=O)=O)cc2)cc1` (stereo not given) [KUC103474N], the EC50 came out at 30 µM.

`CN(C)c1ccc(C2C[C-](c3ccccc3)N=[N+]2c2ccc([N+](=O)[O-])cc2)cc1` (stereo not given) showed an EC50 of 20.4 µM.

The molecule `Cc1ccccc1C1CC(c2ccccc2)=NN1c1ccc(S(N)(=O)=O)cc1` (stereo not given) [UNM-0000306148] showed an EC50 of 30 µM.

`COc1ccc(C2CC(c3ccccc3)=NN2c2ccc(Cl)c(C(=O)O)c2)cc1` (stereo not given) registered an EC50 of 30 µM.

Turning to `CN(C)c1ccc(C2CC(c3ccccc3)=NN2c2ccccc2)cc1` (stereo not given) [4-(2,5-diphenyl-3,4-dihydropyrazol-3-yl)-N,N-dimethylaniline], a half-maximal effect (EC50) was put at 30 µM.

`COc1ccc(C2=NN(c3ccccc3)C(c3ccc(OC)c(OC)c3C(=O)O)C2)cc1` (stereo not given) [UNM-0000305848] had a concentration giving a half-maximal response (EC50) of 30 µM.

`COc1ccccc1C1CC(c2ccccc2)=NN1c1ccccc1` (stereo not given) gave an EC50 of 30 µM.

`COc1ccc(C2CC(c3ccc(F)cc3)=NN2c2ccc(S(N)(=O)=O)cc2)cc1` (stereo not given) [4-[5-(4-fluorophenyl)-3-(4-methoxyphenyl)-3,4-dihydropyrazol-2-yl]benzenesulfonamide] returned an EC50 of 30 µM.

On to `COc1ccc(C2=NN(c3ccc(Cl)cc3)C(c3ccccc3F)C2)cc1` (stereo not given) [UNM-0000305863], for which it took 30 µM to reach a half-maximal effect (EC50).

For `COc1ccc(C2C[C-](c3ccccc3)N=[N+]2c2ccc([N+](=O)[O-])cc2)cc1` (stereo not given) [3-(4-methoxyphenyl)-2-(4-nitrophenyl)-5-phenyl-3,4-dihydropyrazole], the midpoint of the response, the EC50, lay at 30 µM.

`NS(=O)(=O)c1ccc(N2N=C(c3ccccc3)CC2c2ccccc2)cc1` (stereo not given) [4-(3,5-diphenyl-3,4-dihydropyrazol-2-yl)benzenesulfonamide] registered an EC50 of 30 µM.

In the case of `COc1ccc(C2=NN(c3ccc(S(N)(=O)=O)cc3)C(c3ccc(OC)cc3)C2)cc1` (stereo not given) [4-[3,5-bis(4-methoxyphenyl)-3,4-dihydropyrazol-2-yl]benzenesulfonamide], the EC50 was determined as 30 µM.

`COc1ccc(C2CC(c3ccc(N(C)C)cc3)=NN2c2ccc(S(N)(=O)=O)cc2)cc1` (stereo not given) [KUC103422N] came in with a concentration for a half-maximal effect (EC50) of 30 µM.

Molecule `COc1ccc(C2CC(c3ccc(F)cc3)=NN2c2cc(Cl)ccc2Cl)cc1` (stereo not given) [2-(2,5-dichlorophenyl)-5-(4-fluorophenyl)-3-(4-methoxyphenyl)-3,4-dihydropyrazole] showed an EC50 of 0.089 µM.

Molecule `COc1ccc(C2CC(c3cccc(Cl)c3)=NN2c2ccc(S(N)(=O)=O)cc2)cc1` (stereo not given) [UNM-0000306134] displayed a half-maximal effective concentration (EC50) of 30 µM.

On to `Cc1cccc(C2CC(c3ccccc3)=NN2c2ccc(S(N)(=O)=O)cc2)c1` (stereo not given), for which it took 30 µM to reach a half-maximal effect (EC50).

With `COc1ccc(C2=NN(c3ccc(Cl)c(Cl)c3)C(c3ccc(OC)cc3)C2)cc1` (stereo not given) [2-(3,4-dichlorophenyl)-3,5-bis(4-methoxyphenyl)-3,4-dihydropyrazole], the EC50 was found to be 30 µM.

For `COc1ccc(C2CC(c3ccc(C)cc3)=NN2c2ccc(S(N)(=O)=O)cc2)cc1` (stereo not given), the concentration for a half-maximal effect (EC50) was 30 µM.

Take `COc1ccc(C2CC(c3ccc(Cl)cc3)=NN2c2ccccc2)cc1OC` (stereo not given) [UNM-0000305858]: the EC50 was 30 µM.

In the case of `COc1ccccc1N1N=C(c2ccccc2)CC1c1ccccc1` (stereo not given) [UNM-0000305855], the concentration giving a half-maximal response (EC50) turned out to be 30 µM.

In turn, `Fc1ccc(C2=NN(c3cccc(Br)c3)C(c3ccccc3)C2)cc1` (stereo not given) [2-(3-bromophenyl)-5-(4-fluorophenyl)-3-phenyl-3,4-dihydropyrazole] showed an EC50 of 30 µM.

In the case of `COc1ccc(C2CC(c3cccc(N(C)C)c3)=NN2c2ccc(S(N)(=O)=O)cc2)cc1` (stereo not given), the concentration giving a half-maximal response (EC50) amounted to 30 µM.

The molecule `FC(F)(F)c1ccccc1C1CC(c2ccc(Br)cc2)=NN1c1ccccc1` (stereo not given) [5-(4-bromophenyl)-2-phenyl-3-[2-(trifluoromethyl)phenyl]-3,4-dihydropyrazole] displayed an EC50 of 30 µM.

`COc1ccc(C2=NN(c3ccccc3F)C(c3ccc(F)cc3)C2)cc1` (stereo not given) [UNM-0000305860] registered an EC50 of 30 µM.

`COc1ccc(C2CC(c3cccc(C)c3)=NN2c2ccc(S(N)(=O)=O)cc2)cc1` (stereo not given) [UNM-0000306153] registered an EC50 of 30 µM.

`Brc1ccc(N2N=C(c3ccccc3)CC2c2ccccc2)cc1` (stereo not given): the response was half-maximal at 9.53 µM (EC50).

Turning to `COc1ccc(C2CC(c3ccccc3)=NN2c2ccc(C(N)=O)cc2)cc1` (stereo not given) [UNM-0000305870], a half-maximal response (EC50) required 30 µM.

Turning to `COc1ccc(C2CC(c3cccc(F)c3)=NN2c2ccc(S(N)(=O)=O)cc2)cc1` (stereo not given) [4-[5-(3-fluorophenyl)-3-(4-methoxyphenyl)-3,4-dihydropyrazol-2-yl]benzenesulfonamide], the half-maximal effective concentration (EC50) amounted to 30 µM.

`NS(=O)(=O)c1ccc(N2N=C(c3ccccc3)CC2c2cccc(Cl)c2)cc1` (stereo not given) [UNM-0000306161] came in with a half-maximal effective concentration (EC50) of 30 µM.

Turning to `COc1ccc(C2CC(c3ccccc3)=NN2c2ccc(C(=O)O)cc2)cc1` (stereo not given) [UNM-0000306085], the EC50 came out at 30 µM.

In turn, `Cc1cccc(N2N=C(c3ccccc3)CC2c2ccccc2)c1` (stereo not given) [UNM-0000305835] returned an EC50 of 30 µM.

Turning to `COc1ccc(C2CC(c3ccccc3)=NN2c2ccc(S(N)(=O)=O)cc2)cc1OC` (stereo not given) [UNM-0000305823], the EC50 turned out to be 13.2 µM.

For orientation: EC50 means the midpoint of the concentration-response curve.
